Data as given in patent US20150250782A1, “Methods and Compositions for Hypotensive Resuscitation” (Pharmazz, Inc., priority 2012, published 2015).

Key:
hemorrhaged rats [1] = assay: Norepinephrine required to maintain MAP at 70 mmHg in hemorrhaged rats; assay type: in vivo, rat; settings: 0.05 mg/kg
Protocol: (§1) In another study, the effect of centhaquin resuscitation on the amount of norepinephrine (NE) required to maintain mean arterial pressure (MAP) and the time by which MAP falls back to 35 mmHg in hemorrhaged rats was determined. Male, adult rats were anesthetized with urethane and a pressure catheter SPR-320 was placed in the femoral artery, and a pressure-volume catheter SPR-869 was placed in the left ventricle. Hemorrhage was induced by withdrawing blood and MAP was maintained at 35 mmHg for 30 minutes followed by resuscitation.
(§2) Two sets of experiments were performed. First, the amount of NE required to maintain MAP at 70 mmHg in normal saline (NS) or centhaquin (0.05 mg/kg) treated rats (volume equal to blood loss) was determined. Second, the time by which MAP fell back to 35 mmHg in rats treated with 3% hypertonic saline (HS) or centhaquin (0.05 mg/kg) (volume one-fifth of blood loss) was determined. […] In a second set of experiments, hemorrhaged rats were resuscitated with either HS or centhaquin (one-fifth the volume of blood loss).

hemorrhaged rats [2] = assay: Time by which MAP falls back to 35 mmHg in hemorrhaged rats, low volume resuscitation; assay type: in vivo, rat
Protocol: as §1, §2

hemorrhaged rats [3] = assay: Fixed-pressure hemorrhage model, centhaquin dissolved in LR (100% SBV); assay type: in vivo, rat
Protocol: In the studies disclosed below, a rodent model of fixed-pressure hemorrhage without tissue trauma was used. This model limits factors that can influence the activity of a drug that is being investigated for the first time as a resuscitation agent. This hemorrhage model was made more severe by maintaining the hypotension for 30 minutes from the onset of hemorrhage to reach a base deficit of greater than −12 mEq/L (Gulati, Sen et al. 1997). In this irreversible situation, compensatory mechanisms fail (decompensatory phase), and a tremendous decrease in blood flow to all organs occurs, causing hypoperfusion leading to tissue hypoxia and end-organ failure (Gulati, Sen et al. 1997).
A rodent model of fixed-pressure hemorrhage without tissue trauma was used in a preliminary study. This hemorrhage model was made more severe by maintaining the hypotension for 30 min from the onset of hemorrhage to reach a base deficit of greater than −12 mEq/L (Gulati, Sen et al. 1997). […] Following groups were studied: Lactated Ringer's solution (LR-100) (100% shed blood volume (SBV)), or centhaquin (free base) (0.017, 0.05 and 0.15 mg/kg) dissolved in LR (100% SBV), or LR-300 (300% SBV).

hemorrhaged rats [4] = assay: Fixed-pressure hemorrhage model, centhaquin in hypertonic saline; assay type: in vivo, rat
Protocol: A sham group of rats was cannulated, but not hemorrhaged. A vehicle group received hypertonic saline. Treatment groups received centhaquin (free base) (0.006, 0.017, or 0.05 mg/kg) in hypertonic saline. The values are expressed as mean±S.E.M. with n=6 rats in each group.
FIGS. 9-12 show the effect of centhaquin on blood lactate and base deficit in hemorrhaged rats (FIG. 9); on mean arterial pressure and heart rate (FIG. 10); on cardiac output and stroke volume (FIG. 11); and on systemic vascular resistance and stroke work (FIG. 12). Like the tests of FIG. 8, a sham group of rats was cannulated but not hemorrhaged, a vehicle group received hypertonic saline, and treatment groups received free base centhaquin (0.006, 0.017, or 0.05 mg/kg) in hypertonic saline. The values are expressed as mean±S.E.M. with n=6 rats in each group. *p<0.05 compared to baseline, #p<0.05 compared to hemorrhage, Δp<0.05 compared to vehicle treated group.
FIG. 13 is a plot of fraction survival vs. time for groups of hemorrhaged rats. The sham group of rats was cannulated, but not hemorrhaged. The vehicle group received hypertonic saline, while treatment groups received centhaquin (free base) (0.006, 0.017, or 0.05 mg/kg) in hypertonic saline.
Centhaquin increased the survival time of hemorrhaged rats compared to hypertonic saline treatment. Median survival time for 50% survival rate of rats treated with hypertonic saline was 137±12 minutes, while for rats treated with centhaquin it was 375±25 minutes. Fraction survival at 250 min was 0 when resuscitated with hypertonic saline, while treatment with centhaquin improved the fraction survival to 0.8. Even at 480 min after resuscitation with centhaquin, the fraction survival was 0.2. […] The findings of the present study are novel, unexpected, and are important due to recent reports of large clinical studies showing hypertonic saline has no benefit over normal saline in patients with hypovolemic shock or severe traumatic brain injury (Bulger, May et al. 2010; Bulger, May et al. 2011).

[5] = tested on: endothelin A (ETA) receptors; assay: Expression of ETA receptors in blood vessels after intravenous administration; assay type: in vivo, rat; settings: intravenous administration in rats
[6] = tested on: right auricle of guinea pig; settings: Srimal, Mason et al. 1990, cited from earlier work
[7] = 0.05 mg/kg, one-fifth the volume of blood loss
[8] = 0.05 mg/kg, 60 min following resuscitation

In the case of Cc1cccc(N2CCN(CCc3ccc4ccccc4n3)CC2)c1 [centhaquin, 2-[2-(4-(3-methyphenyl)-1-piperazinyl)ethyl]-quinoline], the Blood lactate (hemorrhaged rats [1]; 60 min following resuscitation, volume equal to blood loss) was 1.65 ± 0.23 mmol/L, the “amount of NE needed in each rat to maintain MAP at 70 mmHg” value (hemorrhaged rats [1]; first 60 min of resuscitation) was 17.5 µg and the “blood lactate lower compared to hypertonic saline” value (hemorrhaged rats [2]; [7]) was 44%. For the same compound, the “time by which MAP fell back to 35 mmHg” value (hemorrhaged rats [2]; [7]) was 148 ± 15 min, the “survival after blood transfusion” value (hemorrhaged rats [2]; blood transfusion one-fifth the volume of blood loss after MAP fell to 35 mmHg) was 788 min and the “decrease in systemic vascular resistance” value (hemorrhaged rats [3]; 0.017 mg/kg) was 57%. For the same compound, the “increase in MAP” value (hemorrhaged rats [3]; 0.017 mg/kg) was 55%, the “increase in cardiac output” value (hemorrhaged rats [3]; 0.017 mg/kg) was 260% and the survival time (hemorrhaged rats [3]; 0.017 mg/kg in LR (100% SBV)) was 291 ± 57 min. For the same compound, the blood lactate levels (hemorrhaged rats [3]; 0.017 mg/kg, 60 min following resuscitation) was 3.55 ± 0.07 mmol/L, the “decrease in systemic vascular resistance” value (hemorrhaged rats [3]; 0.05 mg/kg) was 41% and the “increase in cardiac output” value (hemorrhaged rats [3]; 0.05 mg/kg) was 180%. For the same compound, the survival time (hemorrhaged rats [3]; 0.05 mg/kg in LR (100% SBV)) was 387 ± 39 min, the “resuscitation compared to LR-300” value (hemorrhaged rats [3]; 0.05 mg/kg in LR-100 vs LR-300 (300% SBV)) was “more effective in resuscitation” and the blood lactate levels (hemorrhaged rats [3]; [8]) was 4.08 ± 0.28 mmol/L. For the same compound, the “increase in MAP” value (hemorrhaged rats [3]; [8]) was 59%, the “survival time compared to other groups” value (hemorrhaged rats [4]; 0.017 mg/kg) was “maximal survival time” and the Fraction survival (hemorrhaged rats [4]; at 250 min) was 0.8. For the same compound, the Fraction survival (hemorrhaged rats [4]; at 480 min after resuscitation) was 0.2, the “Median survival time for 50% survival rate” value (hemorrhaged rats [4]; centhaquin in hypertonic saline) was 375 ± 25 min and the “expression of endothelin A (ETA) receptors in the blood vessels” value [5] was “increase the expression”. The “effect on positive inotropic effect of norepinephrine” value [6] was “significantly potentiated” and the “spontaneous contraction of the right auricle” value ([6]; up to a concentration of 2 μg/ml) was “not affected”.
